Laboratory results as given in patent publication US12227495B2, “Herbicidal compounds” (SYNGENTA CROP PROTECTION AG, priority 2018, dated 2025).

What was measured:
Type in all cases: in vivo
[1] = tested on: Amaranthus retoflexus (AMARE); experiment: Pre-emergence herbicide test, glasshouse, percentage damage; details: rate 1000 g/ha, evaluated after 13 days
Summary of the method: (§1)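 Pots of standard soil were sown and kept in a glasshouse at 24/16 °C day/night, 14 h light, 65% humidity; plants were sprayed one day after sowing (pre-emergence) or after 8 days (post-emergence) at 500 g/ha unless otherwise stated. Damage was scored after 13 days on a five-point scale (5=81-100%; 1=0-20%).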

Solanum nigrum (SOLNI) [2] = experiment: as above; details: rate 1000 g/ha, evaluated after 13 days
Summary of the method: as §1

[3] = tested on: Ipomoea hederacea (IPOHE); experiment: as above; details: rate 1000 g/ha, evaluated after 13 days
Summary of the method: as §1

Lolium perenne (LOLPE) [4] = experiment: as above; details: rate 1000 g/ha, evaluated after 13 days
Summary of the method: as §1

Setaria faberi (SETFA) [5] = experiment: as above; details: rate 1000 g/ha, evaluated after 13 days
Summary of the method: as §1

[6] = tested on: Echinochloa crus-galli (ECHCG); experiment: as above; details: rate 1000 g/ha, evaluated after 13 days
Summary of the method: as §1

[7] = tested on: Amaranthus retoflexus (AMARE); experiment: Post-emergence herbicide test, glasshouse, percentage damage; details: 1000 g/ha, evaluated after 13 days
Summary of the method: as §1

Solanum nigrum (SOLNI) [8] = experiment: as above; details: 1000 g/ha, evaluated after 13 days
Summary of the method: as §1

[9] = tested on: Ipomoea hederacea (IPOHE); experiment: as above; details: 1000 g/ha, evaluated after 13 days
Summary of the method: as §1

Lolium perenne (LOLPE) [10] = experiment: as above; details: 1000 g/ha, evaluated after 13 days
Summary of the method: as §1

Setaria faberi (SETFA) [11] = experiment: as above; details: 1000 g/ha, evaluated after 13 days
Summary of the method: as §1

[12] = tested on: Echinochloa crus-galli (ECHCG); experiment: as above; details: 1000 g/ha, evaluated after 13 days
Summary of the method: as §1

Compound | Pre-emergence Test AMARE percentage damage (five point scale) [1] | Pre-emergence Test SOLNI percentage damage (five point scale) (Solanum nigrum (SOLNI) [2]) | Pre-emergence Test IPOHE percentage damage (five point scale) [3] | Pre-emergence Test LOLPE percentage damage (five point scale) (Lolium perenne (LOLPE) [4]) | Pre-emergence Test SETFA percentage damage (five point scale) (Setaria faberi (SETFA) [5]) | Pre-emergence Test ECHCG percentage damage (five point scale) [6] | percentage damage caused to the plant, AMARE [7] | percentage damage caused to the plant, SOLNI (Solanum nigrum (SOLNI) [8]) | percentage damage caused to the plant, IPOHE [9] | percentage damage caused to the plant, LOLPE (Lolium perenne (LOLPE) [10]) | percentage damage caused to the plant, SETFA (Setaria faberi (SETFA) [11]) | percentage damage caused to the plant, ECHCG [12]
N#Cc1ccnc(Oc2cccc(Br)c2-c2cc(C(F)F)no2)c1 [Compound A87] | 4 (4=61-80%) | 3 (3=41-60%) | 1 (1=0-20%) | 4 (4=61-80%) | 5 (5=81-100%) | 4 (4=61-80%) | 4 (4=61-80%) | 4 (4=61-80%) | 3 (3=41-60%) | 3 (3=41-60%) | 5 (5=81-100%) | 3 (3=41-60%)
O=[N+]([O-])c1ccc(Oc2cccc(Br)c2-c2cc(C(F)F)no2)nc1 [Compound A88] | 5 (5=81-100%) | 4 (4=61-80%) | 1 (1=0-20%) | 4 (4=61-80%) | 5 (5=81-100%) | 5 (5=81-100%) | 5 (5=81-100%) | 4 (4=61-80%) | 2 (2=21-40%) | 3 (3=41-60%) | 4 (4=61-80%) | 4 (4=61-80%)
FC(F)c1cc(-c2c(Br)cccc2Oc2ncc(Cl)cc2Cl)on1 [Compound A89] | 4 (4=61-80%) | 2 (2=21-40%) | 3 (3=41-60%) | 2 (2=21-40%) | 4 (4=61-80%) | 4 (4=61-80%) | 5 (5=81-100%) | 4 (4=61-80%) | 4 (4=61-80%) | 3 (3=41-60%) | 5 (5=81-100%) | 4 (4=61-80%)
FC(F)c1cc(-c2c(Br)cccc2Oc2ccc(C(F)(F)F)cn2)on1 [Compound A90] | 4 (4=61-80%) | 4 (4=61-80%) | 3 (3=41-60%) | 5 (5=81-100%) | 5 (5=81-100%) | 5 (5=81-100%) | 5 (5=81-100%) | 4 (4=61-80%) | 4 (4=61-80%) | 4 (4=61-80%) | 5 (5=81-100%) | 4 (4=61-80%)
N#Cc1ccnc(Oc2cccc(Cl)c2-c2cc(C(F)F)no2)c1 [Compound A91] | 4 (4=61-80%) | 3 (3=41-60%) | 4 (4=61-80%) | 4 (4=61-80%) | 5 (5=81-100%) | 5 (5=81-100%) | 4 (4=61-80%) | 4 (4=61-80%) | 4 (4=61-80%) | 4 (4=61-80%) | 4 (4=61-80%) | 4 (4=61-80%)
FC(F)c1cc(-c2c(Cl)cccc2Oc2cc(Cl)ccn2)on1 [Compound A92] | 4 (4=61-80%) | 2 (2=21-40%) | 4 (4=61-80%) | 5 (5=81-100%) | 5 (5=81-100%) | 1 (1=0-20%) | 4 (4=61-80%) | 4 (4=61-80%) | 4 (4=61-80%) | 4 (4=61-80%) | 4 (4=61-80%) | 4 (4=61-80%)
Fc1cc(Cl)cnc1Oc1c(F)cccc1-c1cc(C(F)F)no1 [Compound A93] | 4 (4=61-80%) | 4 (4=61-80%) | 3 (3=41-60%) | 3 (3=41-60%) | 4 (4=61-80%) | 4 (4=61-80%) | 5 (5=81-100%) | 3 (3=41-60%) | 3 (3=41-60%) | 3 (3=41-60%) | 5 (5=81-100%) | 4 (4=61-80%)
Cc1cccc(-c2cc(C(F)F)no2)c1Oc1ncc(Cl)cc1F [Compound A94] | 4 (4=61-80%) | 2 (2=21-40%) | 1 (1=0-20%) | 2 (2=21-40%) | 2 (2=21-40%) | 3 (3=41-60%) | 4 (4=61-80%) | 4 (4=61-80%) | 1 (1=0-20%) | 2 (2=21-40%) | 3 (3=41-60%) | 2 (2=21-40%)
Fc1cc(Cl)cnc1Oc1c(Cl)cccc1-c1cc(C(F)F)no1 [Compound A95] | 4 (4=61-80%) | 1 (1=0-20%) | 1 (1=0-20%) | 1 (1=0-20%) | 3 (3=41-60%) | 4 (4=61-80%) | 4 (4=61-80%) | 4 (4=61-80%) | 1 (1=0-20%) | 3 (3=41-60%) | 4 (4=61-80%) | 3 (3=41-60%)
Fc1cc(Cl)cnc1Oc1ccccc1-c1cc(C(F)(F)F)cs1 [Compound A97, 5-chloro-3-fluoro-2-[2-[4-(trifluoromethyl)-2-thienyl]phenoxy]pyridine] | 4 (4=61-80%) | 2 (2=21-40%) | 2 (2=21-40%) | 2 (2=21-40%) | 4 (4=61-80%) | 3 (3=41-60%) | 5 (5=81-100%) | 4 (4=61-80%) | 4 (4=61-80%) | 3 (3=41-60%) | 5 (5=81-100%) | 4 (4=61-80%)
